Data taken from PMC5129993, “Everolimus induces Met inactivation by disrupting the FKBP12/Met complex” (Oncotarget, 2016).

Key:
phospho-p70S6K = experiment: Western blot analysis of p70S6K phosphorylation in human cancer cell lines; format: cell-based; settings: 24 hours; for phospho-p70S6K: 786-O and MDA-MB-231 cells; for phosphorylation of p70S6K: 786-O EveR and HCT116 cells, 1 μM (siRNA 50 nM)
Description: (§1) Total protein extracts obtained from cell cultures or tumor specimens were resolved by 4-15% SDS-PAGE and probed with anti-human, polyclonal pMet Y1349, polyclonal Met, monoclonal pp70S6K T412 and p70S6K (Merck-Millipore Darmstadt, Germany), monoclonal actin (Sigma-Aldrich, Milan, Italy), monoclonal FKBP12, polyclonal mTOR, Raptor, and Rictor. Co-immunoprecipitation analyses were performed with anti-Met; membranes were blotted with anti-FKBP12. The total lysate from 786-O, 786-O EveR and HCT116 cells served as positive control. Immunoreactive proteins were visualized by enhanced chemiluminescence (Pierce, Rockford, IL, USA). Densitometry was performed with Image J software (NIH, Bethesda, MD, USA).

phospho-Met = experiment: Western blot analysis of Met phosphorylation in human cancer cell lines; format: cell-based; settings: 24 hours; for Met phosphorylation: 0.5 μM; for phosphorylation of Met: 786-O EveR and HCT116 cells, 1 μM (siRNA 50 nM)
Description: as §1

[1] = test system: 786-O EveR (everolimus-resistant) cells; experiment: Cell density assay (MTT); format: cell-based; settings: Homo sapiens, 786-0, data not shown, read-out: concentration causing 50% reduction of cell density
Description: (§2) The percentage of cell density was determined using the 3-(4,5-dimethylthiazol-2-yl)-2,5-diphenyltetrazolium bromide (MTT) assay according to the manufacturer's instructions (Sigma-Aldrich, Milan, Italy). […]

[2] = test system: everolimus-resistant HCT116 cells; experiment: Orthotopic murine colorectal cancer model (HCT116 in cecum); format: in vivo, Balb/C nude mice; settings: orthotopic HCT116, four weeks after tumor implantation
Description: The cecum was then placed
Seven days after implantation, […]
p/6 x larger diameter x (smaller diameter)2. […]
diameter was assessed with ultrasonography (VEVO,
Committee. Primary tumors in the cecum were excised
The final tumor was measured with a caliper surgical site was isolated in a sterile fashion.
J Am Chem Soc. 2003; 125: 8827-8837.
Uncoupling signal transducers from oncogenic MET 6.
2. […] 2000; 25: 217-222.
Unbinding pathways from the glucocorticoid receptor shed 7. Michnick SW, Rosen MK, Wandless TJ, Karplus M, […]
Solution structure of FKBP, a rotamase a naturally occurring, clinically relevant mutant receptor. J enzyme and receptor for FK506 and rapamycin. Science.
3. […] Mustafi SM, LeMaster DM, Hernández G. Differential […]
cytoreductive antitumor activity in vivo.
HADDOCK2.0 on the CAPRI targets. Proteins.
726-733. JR, Soisson SM, Lumb KJ. Structural basis for selective

[3] = test system: everolimus-resistant HCT116 cells; experiment: Subcutaneous murine colorectal cancer model (HCT116 xenograft); settings: for Median survival: subcutaneous HCT116 xenograft, 10 mice/group
Source text: We subcutaneously xenografted everolimus-resistant HCT116 cells into 50 four- to six-week-old female BALB/c athymic nu+/nu+ (nude) mice (Charles River Laboratories, Milan, Italy). Forty animals were used to carry out the subcutaneous colorectal cancer model experiment; when tumors reached a mean volume of 1 cm^3, 10 animals were euthanized, tumors were divided into 2-mm-sized pieces and microsurgically implanted in the cecum of 40 Balb/C nude mice for the orthotopic experiment. See Supplementary Methods for further details about the surgical procedure and the treatment schedule. […]

[4] = test system: T47D cells with Met Y1235D mutant; experiment: Cell density assay (MTT), Met-transduced T47D; format: cell-based, human
Description: as §2
(§3) (iii) an active conformation. The resulting selected Met [Follenzi A, Nat Genet. 2000]. […]
(§4) We used the pRRL.sin.PPT.hCMV.GFP.
(§5) Cα] at the 80 loop level (frame 13). To generate the Met/pre vector as control. […]

T47D cells with wt Met = experiment: Cell density assay (MTT), Met-transduced T47D; format: cell-based, human
Description: as §2, §3, §4, §5

[5] = test system: T47D cells with Met M1268T mutant; experiment: Cell density assay (MTT), Met-transduced T47D; format: cell-based, human
Description: as §2, §3, §4, §5

Met Y1230A = target: T1, Met Y1230A (Homo sapiens, UniProt P08581, Y1230A); experiment: In vitro Met kinase inhibition assay (ProQinase, radiometric 33PanQinase); format: biochemical
T1 construct: purchased ProQinase GmbH (screening service)
Description: (§6) In vitro Met kinase inhibition assay equilibrated using NAMD2.8 [Phillips JC, J Comput Chem.
(§7) The Met kinase inhibition by everolimus was analyzed 2005], and the final MD simulation was conducted applying […]
(§8) ProQinase (ProQinase GmbH, Freiburg, Germany). Briefly, J Med Chem. 2013].
(§9) -10 - trajectories. The complex was aligned on the Cα atoms of different concentrations (standard range: 3x10M–1x10 Met, while the backbone atoms Root-mean-square deviation 5M; semilog dilutions) against human recombinant wt
(§10) Met and nine Met mutant protein kinases, and IC values (RMSD) of FKBP12 was measured and used to cluster the 50 trajectories. The cluster analysis was performed using ptraj […]
(§11) All assays were Å. Finally, the representative structure of the most populated performed at the corresponding apparent ATP Km of each cluster was choosen as the final Met/FKBP12 complex. […]

Met Y1230H = target: T2, Met Y1230H (Homo sapiens, UniProt P08581, Y1230H); experiment: as above; format: biochemical
T2 construct: purchased ProQinase GmbH (screening service)
Description: as §6, §7, §8, §9, §10, §11

Met M1250T = target: T3, Met M1250T (Homo sapiens, UniProt P08581, M1250T); experiment: as above; format: biochemical
T3 construct: purchased ProQinase GmbH (screening service)
Description: as §6, §7, §8, §9, §10, §11

Met F1200I = target: T4, Met F1200I (Homo sapiens, UniProt P08581, F1200I); experiment: as above; format: biochemical
T4 construct: purchased ProQinase GmbH (screening service)
T4 sequence (P08581 25-1390 F1200I): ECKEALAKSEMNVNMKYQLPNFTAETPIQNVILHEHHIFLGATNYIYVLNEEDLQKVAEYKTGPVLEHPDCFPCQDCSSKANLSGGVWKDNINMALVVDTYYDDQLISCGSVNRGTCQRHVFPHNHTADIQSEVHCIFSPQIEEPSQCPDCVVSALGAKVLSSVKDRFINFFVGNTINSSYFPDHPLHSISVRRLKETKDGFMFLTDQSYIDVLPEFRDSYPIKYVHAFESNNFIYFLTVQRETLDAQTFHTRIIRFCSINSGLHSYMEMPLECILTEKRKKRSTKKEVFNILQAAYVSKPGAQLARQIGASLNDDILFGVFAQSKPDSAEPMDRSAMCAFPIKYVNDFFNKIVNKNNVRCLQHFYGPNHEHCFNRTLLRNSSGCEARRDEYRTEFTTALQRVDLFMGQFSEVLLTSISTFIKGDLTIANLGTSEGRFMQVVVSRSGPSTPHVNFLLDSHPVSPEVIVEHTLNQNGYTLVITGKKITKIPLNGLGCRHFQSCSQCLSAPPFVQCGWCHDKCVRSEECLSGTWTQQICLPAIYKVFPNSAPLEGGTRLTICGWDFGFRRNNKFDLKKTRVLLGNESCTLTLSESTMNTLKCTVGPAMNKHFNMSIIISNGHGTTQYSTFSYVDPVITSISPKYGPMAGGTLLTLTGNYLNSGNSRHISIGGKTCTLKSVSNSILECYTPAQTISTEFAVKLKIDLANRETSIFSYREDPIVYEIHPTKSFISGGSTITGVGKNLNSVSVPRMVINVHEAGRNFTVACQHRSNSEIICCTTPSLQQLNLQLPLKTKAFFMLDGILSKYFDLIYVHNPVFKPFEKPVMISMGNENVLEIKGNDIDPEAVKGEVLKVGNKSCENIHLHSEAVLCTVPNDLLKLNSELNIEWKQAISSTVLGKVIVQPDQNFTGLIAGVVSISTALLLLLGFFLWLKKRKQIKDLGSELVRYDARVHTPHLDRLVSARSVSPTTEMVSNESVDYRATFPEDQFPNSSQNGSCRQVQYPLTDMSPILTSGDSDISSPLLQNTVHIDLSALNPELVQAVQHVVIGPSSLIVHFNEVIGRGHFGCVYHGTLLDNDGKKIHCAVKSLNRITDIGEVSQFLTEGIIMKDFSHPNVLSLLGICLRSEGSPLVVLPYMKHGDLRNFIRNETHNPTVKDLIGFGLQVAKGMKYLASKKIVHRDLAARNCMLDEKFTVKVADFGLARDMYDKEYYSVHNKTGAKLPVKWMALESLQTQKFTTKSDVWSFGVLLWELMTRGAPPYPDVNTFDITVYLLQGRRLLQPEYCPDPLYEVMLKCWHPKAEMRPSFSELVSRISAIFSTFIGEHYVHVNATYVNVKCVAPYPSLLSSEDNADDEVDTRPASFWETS
Description: as §6, §7, §8, §9, §10, §11

Met D1228H = target: T5, Met D1228H (Homo sapiens, UniProt P08581, D1228H); experiment: as above; format: biochemical
T5 construct: purchased ProQinase GmbH (screening service)
Description: as §6, §7, §8, §9, §10, §11

Met Y1230D = target: T6, Met Y1230D (Homo sapiens, UniProt P08581, Y1230D); experiment: as above; format: biochemical
T6 construct: purchased ProQinase GmbH (screening service)
T6 sequence (P08581 25-1390 Y1230D): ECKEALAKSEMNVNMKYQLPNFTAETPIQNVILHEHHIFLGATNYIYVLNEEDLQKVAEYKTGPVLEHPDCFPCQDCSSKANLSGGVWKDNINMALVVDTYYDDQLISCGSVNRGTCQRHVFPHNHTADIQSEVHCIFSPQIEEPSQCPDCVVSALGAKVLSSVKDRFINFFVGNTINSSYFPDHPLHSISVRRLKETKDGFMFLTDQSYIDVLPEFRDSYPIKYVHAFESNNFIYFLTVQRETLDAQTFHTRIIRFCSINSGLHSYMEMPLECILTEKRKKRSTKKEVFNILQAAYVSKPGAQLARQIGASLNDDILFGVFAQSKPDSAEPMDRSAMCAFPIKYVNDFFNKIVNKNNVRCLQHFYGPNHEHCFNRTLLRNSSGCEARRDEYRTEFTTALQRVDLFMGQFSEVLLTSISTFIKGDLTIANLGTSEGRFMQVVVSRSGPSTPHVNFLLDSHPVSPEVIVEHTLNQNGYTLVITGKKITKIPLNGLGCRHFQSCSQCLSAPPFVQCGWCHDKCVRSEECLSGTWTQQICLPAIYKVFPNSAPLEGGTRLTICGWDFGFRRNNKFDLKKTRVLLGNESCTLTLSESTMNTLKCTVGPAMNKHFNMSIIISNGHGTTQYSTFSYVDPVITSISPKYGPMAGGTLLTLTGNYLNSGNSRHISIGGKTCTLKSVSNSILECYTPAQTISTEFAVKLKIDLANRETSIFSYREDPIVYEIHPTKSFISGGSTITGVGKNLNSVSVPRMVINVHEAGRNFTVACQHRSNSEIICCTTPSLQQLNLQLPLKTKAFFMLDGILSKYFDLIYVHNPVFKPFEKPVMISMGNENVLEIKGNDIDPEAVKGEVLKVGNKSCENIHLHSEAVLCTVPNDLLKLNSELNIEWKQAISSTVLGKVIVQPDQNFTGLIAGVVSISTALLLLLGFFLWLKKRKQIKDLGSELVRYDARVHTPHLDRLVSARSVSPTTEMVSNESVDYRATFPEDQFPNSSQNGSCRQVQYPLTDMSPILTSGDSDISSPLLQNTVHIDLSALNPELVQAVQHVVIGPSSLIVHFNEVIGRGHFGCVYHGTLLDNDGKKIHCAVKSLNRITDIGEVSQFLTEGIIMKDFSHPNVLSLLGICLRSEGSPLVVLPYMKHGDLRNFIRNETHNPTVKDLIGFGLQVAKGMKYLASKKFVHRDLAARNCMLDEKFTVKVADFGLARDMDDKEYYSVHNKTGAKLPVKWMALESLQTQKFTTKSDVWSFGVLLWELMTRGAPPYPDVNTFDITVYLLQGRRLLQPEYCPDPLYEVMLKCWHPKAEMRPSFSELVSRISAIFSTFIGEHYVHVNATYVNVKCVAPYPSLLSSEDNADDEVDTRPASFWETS
Description: as §6, §7, §8, §9, §10, §11

FKBP12/Met complex = target: T7, FKBP12/Met complex (Homo sapiens, UniProt P62942); experiment: Co-immunoprecipitation of FKBP12 with anti-Met antibody; format: cell-based; settings: 0.5 μM, 24 hours
T7 construct: immunoprecipitated total cell lysates from everolimus-treated and -untreated 786-O cells; endogenous in cells; host or cells: 786-O (also 786-O EveR and HCT116)
T7 sequence (P62942 2-108 limits assumed, one chain of several): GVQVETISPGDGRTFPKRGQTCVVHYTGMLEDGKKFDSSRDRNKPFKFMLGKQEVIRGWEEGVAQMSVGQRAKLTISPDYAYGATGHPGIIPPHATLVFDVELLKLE
Description: as §1

Met D1228N = target: T8, Met D1228N (Homo sapiens, UniProt P08581, D1228N); experiment: In vitro Met kinase inhibition assay (ProQinase, radiometric 33PanQinase); format: biochemical
T8 construct: purchased ProQinase GmbH (screening service)
T8 sequence (P08581 25-1390 D1228N): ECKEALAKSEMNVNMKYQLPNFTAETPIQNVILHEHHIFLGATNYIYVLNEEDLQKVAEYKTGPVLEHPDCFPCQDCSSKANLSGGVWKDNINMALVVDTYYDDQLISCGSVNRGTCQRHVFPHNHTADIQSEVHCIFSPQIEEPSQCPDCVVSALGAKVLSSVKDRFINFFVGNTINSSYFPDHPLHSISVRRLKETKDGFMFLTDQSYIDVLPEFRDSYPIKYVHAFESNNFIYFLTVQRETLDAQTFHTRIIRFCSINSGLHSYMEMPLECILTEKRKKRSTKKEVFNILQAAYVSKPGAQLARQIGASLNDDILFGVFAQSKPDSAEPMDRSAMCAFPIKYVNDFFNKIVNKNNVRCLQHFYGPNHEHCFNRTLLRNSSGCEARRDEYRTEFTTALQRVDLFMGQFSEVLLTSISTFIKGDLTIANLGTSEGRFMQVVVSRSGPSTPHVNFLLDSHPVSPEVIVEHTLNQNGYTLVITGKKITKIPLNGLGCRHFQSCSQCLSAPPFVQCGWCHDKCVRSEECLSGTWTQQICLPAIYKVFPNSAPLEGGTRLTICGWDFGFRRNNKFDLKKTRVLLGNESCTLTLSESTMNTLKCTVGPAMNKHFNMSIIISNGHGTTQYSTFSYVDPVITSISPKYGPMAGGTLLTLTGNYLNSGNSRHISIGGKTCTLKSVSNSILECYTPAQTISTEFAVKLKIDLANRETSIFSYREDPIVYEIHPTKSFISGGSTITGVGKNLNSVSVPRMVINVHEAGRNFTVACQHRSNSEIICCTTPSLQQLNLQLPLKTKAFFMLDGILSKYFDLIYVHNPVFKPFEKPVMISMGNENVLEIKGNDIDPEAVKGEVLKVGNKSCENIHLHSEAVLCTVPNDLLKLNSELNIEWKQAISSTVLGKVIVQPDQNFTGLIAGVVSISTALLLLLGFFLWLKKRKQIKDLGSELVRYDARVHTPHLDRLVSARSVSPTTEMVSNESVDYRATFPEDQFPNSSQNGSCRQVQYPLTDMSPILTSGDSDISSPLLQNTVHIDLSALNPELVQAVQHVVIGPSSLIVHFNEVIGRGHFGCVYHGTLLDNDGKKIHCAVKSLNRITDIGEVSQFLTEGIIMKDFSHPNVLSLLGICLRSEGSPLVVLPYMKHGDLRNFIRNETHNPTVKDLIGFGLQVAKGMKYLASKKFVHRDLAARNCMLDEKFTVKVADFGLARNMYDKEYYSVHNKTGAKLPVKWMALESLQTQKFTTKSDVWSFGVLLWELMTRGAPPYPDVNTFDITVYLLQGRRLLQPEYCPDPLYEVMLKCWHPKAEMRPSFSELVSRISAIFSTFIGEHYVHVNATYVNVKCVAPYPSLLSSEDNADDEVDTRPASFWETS
Description: as §6, §7, §8
(§12) -10 - trajectories. The complex was aligned on the Cα atoms of different concentrations (standard range: 3x10M–1x10 Met, while the backbone atoms Root-mean-square deviation 5M; semilog dilutions) against human recombinant wt […]
as §11

Met Wild-type = target: T9, Met Wild-type (Homo sapiens, UniProt P08581); experiment: as above; format: biochemical; settings: Met TK Wild-type; 0.3 nM to 10 μM, singlicate; apparent ATP Km
T9 construct: purchased ProQinase GmbH (screening service)
Description: as §6, §7, §8, §12, §11

Met Y1230C = target: T10, Met Y1230C (Homo sapiens, UniProt P08581, Y1230C); experiment: as above; format: biochemical
T10 construct: purchased ProQinase GmbH (screening service)
Description: as §6, §7, §8, §12, §11

MDA-MB-361 cells = experiment: Cell density assay (MTT); format: cell-based; settings: Homo sapiens, MDA-MB-361, 72 hours, read-out: concentration causing 50% reduction of cell density
Description: (§13) The percentage of cell density was determined using the 3-(4,5-dimethylthiazol-2-yl)-2,5-diphenyltetrazolium bromide (MTT) assay according to the manufacturer's instructions (Sigma-Aldrich, Milan, Italy).

ACHN cells = experiment: Cell density assay (MTT); format: cell-based; settings: Homo sapiens, 72 hours, read-out: concentration causing 50% reduction of cell density
Description: as §13

PC-9 cells = experiment: Cell density assay (MTT); format: cell-based; settings: Homo sapiens, PC-9, 72 hours, read-out: concentration causing 50% reduction of cell density
Description: as §13

NCI-H1975 cells = experiment: Cell density assay (MTT); format: cell-based; settings: Homo sapiens, NCI-H1975, 72 hours, read-out: concentration causing 50% reduction of cell density
Description: as §13

MDA-MB-231 cells = experiment: Cell density assay (MTT); format: cell-based; settings: Homo sapiens, MDA-MB-231, 72 hours, read-out: concentration causing 50% reduction of cell density
Description: as §13

786-O cells = experiment: Cell density assay (MTT); format: cell-based; settings: Homo sapiens, 786-0, 72 hours, read-out: concentration causing 50% reduction of cell density
Description: as §13

HCT116 cells = experiment: Cell density assay (MTT); format: cell-based; settings: Homo sapiens, HCT-116; HCT116, data not shown; read-out: concentration causing 50% reduction of cell density
Description: as §13

[6] = day 42, 6 weeks after cell injection, everolimus 5 mg/kg per os, PHA665752 20 mg/kg i.v., five times a week for 2 weeks

CN(C)C1CCN(C(=O)c2ccc(NC(=O)Nc3ccc(-c4nc(N5CCOCC5)nc(N5CCOCC5)n4)cc3)cc2)CC1 [PKI-587]
phospho-p70S6K (phospho-p70S6K; 0.5 μM): reduced phospho-p70S6K | Met phosphorylation (phospho-Met; 786-O and MDA-MB-231 cells): neither PKI-587 nor OSI-027 inhibited Met phosphorylation

CO[C@H]1C[C@@H]2CC[C@@H](C)[C@@](O)(O2)C(=O)C(=O)N2CCCC[C@H]2C(=O)O[C@H]([C@H](C)C[C@@H]2CC[C@@H](OCCO)[C@H](OC)C2)CC(=O)[C@H](C)/C=C(\C)[C@@H](O)[C@@H](OC)C(=O)[C@H](C)C[C@H](C)/C=C/C=C/C=C/1C [everolimus]
IC50 [1]: ≥ 5 µM | tumor volume [2]: large tumors in the cecum and peritoneum | tumor growth inhibition [3, 6]: 35% | Median survival [3]: 37.5 days | phosphorylation of p70S6K (phospho-p70S6K): did not affect the phosphorylation of Met or p70S6K | p70S6K phosphorylation (phospho-p70S6K; renal, breast and lung everolimus-sensitive cell lines, 0.5 μM): decreased p70S6K phosphorylation | IC50 ([4]; Homo sapiens, T47D with Met Y1235D, read-out: drug concentration causing 50% reduction of cell density): > 0.5 µM | IC50 (T47D cells with wt Met; Homo sapiens, T47D with wt Met, read-out: drug concentration causing 50% reduction of cell density): > 0.5 µM | IC50 ([5]; Homo sapiens, T47D with Met M1268T, read-out: drug concentration causing 50% reduction of cell density): > 0.5 µM | IC50 (Met Y1230A): > 10 µM | IC50 (Met Y1230H): > 10 µM | IC50 (Met M1250T): > 10 µM | IC50 (Met F1200I): > 10 µM | IC50 (Met D1228H): > 10 µM | IC50 (Met Y1230D): > 10 µM | amount of FKBP12 co-immunoprecipitated with Met (FKBP12/Met complex; 786-O cells): lower | amount of FKBP12 co-immunoprecipitated with Met (FKBP12/Met complex; everolimus-resistant 786-O EveR and HCT116 cells): not reduced | phosphorylation of Met (phospho-Met): did not affect the phosphorylation of Met or p70S6K | Met phosphorylation (phospho-Met; renal, breast and lung everolimus-sensitive cell lines): inhibition of Met phosphorylation | IC50 (Met D1228N): > 10 µM | IC50 (Met Wild-type): > 10 µM | IC50 (Met Y1230C): > 10 µM | IC50 (MDA-MB-361 cells): ≤ 0.5 µM | IC50 (ACHN cells): ≤ 0.5 µM | IC50 (PC-9 cells): ≤ 0.5 µM | IC50 (NCI-H1975 cells): ≤ 0.5 µM | IC50 (MDA-MB-231 cells): ≤ 0.5 µM | IC50 (786-O cells): ≤ 0.5 µM | IC50 (HCT116 cells): ≥ 5 µM

Cc1[nH]c(/C=C2\C(=O)Nc3ccc(S(=O)(=O)Cc4c(Cl)cccc4Cl)cc32)c(C)c1C(=O)N1CCC[C@@H]1CN1CCCC1 [PHA665752]
tumor volume [2]: greatly reduced | tumor weight [2]: greatly reduced | tumor growth inhibition [3, 6]: 85% | tumor growth inhibition ([3]; end of the experiment, same regimen): 30% | Median survival [3]: 57 days | phosphorylation of p70S6K (phospho-p70S6K): reduced the phosphorylation of Met and p70S6K | sensitivity to everolimus (cell density) ([4]; T47D Met Y1235D, PHA665752 1 μM + everolimus 1 μM, 72 hours, P <0.01): significantly restored sensitivity to everolimus | sensitivity to everolimus (cell density) (T47D cells with wt Met; T47D wt Met, PHA665752 1 μM + everolimus 1 μM, 72 hours, P <0.01): significantly restored sensitivity to everolimus | sensitivity to everolimus (cell density) ([5]; T47D Met M1268T, PHA665752 1 μM + everolimus 1 μM, 72 hours, P <0.01): significantly restored sensitivity to everolimus | phosphorylation of Met (phospho-Met): reduced the phosphorylation of Met and p70S6K

COc1cccc2cc(-c3nc([C@H]4CC[C@H](C(=O)O)CC4)n4ncnc(N)c34)[nH]c12 [OSI-027]
phospho-p70S6K (phospho-p70S6K; 0.5 μM): reduced phospho-p70S6K | Met phosphorylation (phospho-Met; 786-O and MDA-MB-231 cells): neither PKI-587 nor OSI-027 inhibited Met phosphorylation
